Test results taken from patent publication US20190290621A1, “COMPOSITIONS AND METHODS FOR TREATING HIV-1 LATENCY” (priority 2017, published 2019).

How the values were obtained:
HIV Gag = assay: Western blot for HIV Gag in JLAT10.6 cells; type: cell-based; details: 24 h
JLAT10.6 cells = assay: HIV-1 latency reactivation screen in JLAT10.6 cells (GFP by FACS); type: cell-based
Protocol: For screening purposes, JLAT10.6 cells, a T-cell line that has been widely used for HIV-1 reactivation studies (32-34) were utilized. In this cell line, HIV-1Δenv from the NL4-3 backbone with GFP replacing the Nef gene is stably integrated into the genome and is expressed at undetectable levels. Upon HIV reactivation with latency reversing agents (LRAs), viral production leads to expression of GFP that was measured by fluorescent activation cell sorting (FACS) analysis using a Becton Dickinson FACS machine. Analysis was performed using BD […] PRO software (BD Biosciences; Franklin Lakes, N.J.). The stronger the HIV reactivation, the higher the percentage of GFP-positive cells observed. JLAT10.6 cells were incubated with HDAC inhibitors at concentrations of 1 and 10 μM for 24 hours, using TNF-α and SAHA (Vorinostat) as positive controls.

[1] = mice; cited from earlier work
HIV-1 LTR = assay: ChIP assay of acetylated histone H3 at the HIV-1 LTR; type: cell-based; details: JLAT10.6 cells, 6 hours, HIV-1 LTR qPCR
Protocol: Since histone H3 is […] by Class I HDACs and known to bind to the HIV LTR promoter, we determined H3 acetylation status of the HIV-1 LTR in JLAT10.6 cells. […] The ChIP assay was performed using a ChIP kit (ab500) (Abcam; Cambridge, Mass.). Briefly, an anti-rabbit IgG (Cell Signaling Technologies; Danvers, Mass.) was used as an isotype control. Actin was used as an internal control. Total chromatin (input) and the immunoprecipitated chromatin were used as templates and HIV-1 LTR was amplified by quantitative PCR using HIV-1 LTR (forward: 5-[…] […]-3, reverse: 5-TAG […] A-3) and actin primers. Using ChIP, we recovered 15% of the DNA from SDL148-treated cells using anti-acetylated histone H3 antibody compared to less than 5% recovery with DMSO-treated cells, and less than 1% from the IgG-negative controls. […] An alternative mechanism is modulation of lysines in Tat that impact its ability to interact with TAR of the HIV-1 LTR (37-39).

HDAC3 = HDAC3 (Homo sapiens, UniProt O15379); details: cited from earlier work
Class II HDAC = assay: Western blot for acetylated tubulin as a measure of Class II HDAC inhibition; type: cell-based; details: Jurkat cells and primary resting CD4+ T-cells, 8 hours
Class I HDAC = assay: Western blot for acetylated histone H3 as a measure of Class I HDAC inhibition; type: cell-based; details: Jurkat cells and primary resting CD4+ T-cells, 8 hours

Chain of HDAC3 (O15379 whole entry): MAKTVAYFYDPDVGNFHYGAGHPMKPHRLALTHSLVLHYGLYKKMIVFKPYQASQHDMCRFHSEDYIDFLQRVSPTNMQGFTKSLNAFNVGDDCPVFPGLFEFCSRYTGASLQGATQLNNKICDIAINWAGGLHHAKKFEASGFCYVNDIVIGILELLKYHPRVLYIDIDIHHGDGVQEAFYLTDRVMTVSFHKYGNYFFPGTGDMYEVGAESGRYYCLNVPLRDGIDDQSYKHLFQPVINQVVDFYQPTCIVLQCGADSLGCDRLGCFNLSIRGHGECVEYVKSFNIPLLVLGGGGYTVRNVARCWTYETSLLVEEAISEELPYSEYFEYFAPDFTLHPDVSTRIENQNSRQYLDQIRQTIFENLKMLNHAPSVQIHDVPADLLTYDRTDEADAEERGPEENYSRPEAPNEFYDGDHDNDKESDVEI
Chain of HDAC3 (Q9Y618 395-489 partner limits assumed): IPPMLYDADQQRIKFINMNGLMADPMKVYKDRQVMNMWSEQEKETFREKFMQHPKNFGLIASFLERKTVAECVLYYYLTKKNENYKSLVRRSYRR

| Compound | expression of HIV Gag (HIV Gag) | reactivation of HIV expression at 100 nM (JLAT10.6 cells; 100 nM) | potency in reactivating HIV from latency compared with vorinostat (JLAT10.6 cells; 1 and 10 μM, 24 hours) | EC50 (JLAT10.6 cells; read-out: EC50 to reactivate HIV from latency) | bioavailability [1] | DNA recovered using anti-acetylated histone H3 antibody (HIV-1 LTR) | potency against HDAC3 (HDAC3) | acetylation of tubulin (Class II HDAC) | histone H3 acetylation (Class I HDAC) |
| --- | --- | --- | --- | --- | --- | --- | --- | --- | --- |
| largazole [SDL148] | enhanced expression of HIV Gag | the only compound able to reactivate HIV expression significantly | comparable or more potent than vorinostat | 150 nM | excellent bioavailability | 15% | picomolar range |  |  |
| O=C(CCCCCCC(=O)Nc1ccccc1)NO [SAHA, suberoylanilide hydroxamic acid] |  |  |  |  |  |  |  | enhanced the acetylation of both histone H3 and tubulin | enhanced the acetylation of both histone H3 and tubulin |
